Consider 19 compounds from patent US10793568B2, “Hormone receptor modulators for treating metabolic conditions and disorders” (ARDELYX, INC., priority 2016, dated 2020).

One may read the pEC50 as −log10 of the EC50, conventionally taken in molar units. As a reminder, the EC50 is the concentration giving half of the maximal effect. High values mean a need for much substance, low ones an effect from little substance.

Assay [1] concerns the target ligand binding domain of human FXR (Homo sapiens (Human), UniProt Q96RI1). The assay can be described thus: FXR ligand binding assay (LanthaScreen TR-FRET, SRC2-2 peptide recruitment). Conditions: for pEC50: -log EC50, concentration required to produce 50% activation; for Emax: read-out: % Efficacy. (In general: In TR-FRET formats the signal depends on donor and acceptor labels being close together.)

The target of assay [2] is human Farnesoid X receptor ligand-binding domain/Gal4 DNA binding domain chimera (Homo sapiens (Human), UniProt Q96RI1). As to the kind of experiment: Cell-based assay of FXR activation (FXR-UAS-bla HEK 293T beta-lactamase reporter). To be noted: cellular FXR beta-lactamase reporter assay; for Emax: HEK-293T, extent of activation relative to GW4064, read-out: % Efficacy; for EC50: FXR-UAS-bla HEK 293T cells, 16 h, pEC50 = -log EC50. The method in brief:
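HEK 293T cells stably expressing a Gal4-fused human FXR LBD and a UAS-driven beta-lactamase reporter were incubated with serially diluted compounds for 16 h at 37 °C in phenol red-free DMEM with 2% charcoal-stripped FBS. CCF4 FRET read-out: excitation 409 nm, emission 447 nm. pEC50 comes from a 3-parameter logistic fit, and efficacy is given as % of GW4064.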

Setting [3] is: extent of activation relative to GW4064.

Where two headings read alike, the source gives them in different places.

Sequence of human Farnesoid X receptor ligand-binding domain/Gal4 DNA binding domain chimera (Q96RI1 262-486, change not shown): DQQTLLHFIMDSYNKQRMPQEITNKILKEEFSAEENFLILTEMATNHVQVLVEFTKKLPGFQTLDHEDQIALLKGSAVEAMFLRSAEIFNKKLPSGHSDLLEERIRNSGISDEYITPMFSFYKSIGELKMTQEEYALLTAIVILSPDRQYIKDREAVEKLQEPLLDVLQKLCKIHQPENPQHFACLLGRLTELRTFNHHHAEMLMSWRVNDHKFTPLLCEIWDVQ
Sequence of human Farnesoid X receptor ligand-binding domain/Gal4 DNA binding domain chimera (P04386 1-147 partner): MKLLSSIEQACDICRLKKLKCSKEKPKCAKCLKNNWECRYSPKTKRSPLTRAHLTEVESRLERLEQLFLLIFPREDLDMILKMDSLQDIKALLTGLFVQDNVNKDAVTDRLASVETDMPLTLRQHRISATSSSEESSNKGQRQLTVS
Sequence of ligand binding domain of human FXR (Q96RI1 262-486): as the sequence (Q96RI1 262-486, change not shown) above

With `O=C(O)c1cc(F)c2nc(N3C[C@@H]4C[C@H]3C[C@H]4OCc3c(-c4c(Cl)cc(O)cc4Cl)noc3C3CC3)sc2c1` [Compound I-287, 2-[(1S,4S,5R)-5-{[5-cyclopropyl-3-(2,6-dichloro-4-hydroxyphenyl)-1,2-oxazol-4-yl]methoxy}-2-azabicyclo[2.2.1]heptan-2-yl]-4-fluoro-1,3-benzothiazole-6-carboxylic Acid], the pEC50 in assay [1] was determined as 9.2. In assay [1] (setting [3]), the Emax is 134%. In assay [2], the Emax amounted to 113% and it took 0.0631 µM to reach a half-maximal effect (EC50).
For `CS(=O)(=O)NC(=O)c1ccc(N2C[C@@H]3C[C@H]2C[C@H]3OCc2c(-c3c(Cl)cccc3Cl)noc2C2CC2)cc1` [Compound I-58, 4-[(1S,4S,5R)-5-{[5-cyclopropyl-3-(2,6-dichlorophenyl)-1,2-oxazol-4-yl]methoxy}-2-azabicyclo[2.2.1]heptan-2-yl]-N-methanesulfonylbenzamide] the same measures were 8.4, 153%, 104% and 0.000501 µM.
In assay [1], `O=C(O)c1cc(F)c2nc(N3C[C@H]4C[C@@H]3C[C@H]4OC(=O)c3c(-c4c(Cl)cccc4Cl)noc3C3CC3)sc2c1` [Compound I-40, 2-[(1R,4R,5R)-5-[5-cyclopropyl-3-(2,6-dichlorophenyl)-1,2-oxazole-4-carbonyloxy]-2-azabicyclo[2.2.1]heptan-2-yl]-4-fluoro-1,3-benzothiazole-6-carboxylic Acid] returned a pEC50 of more than 4.5. This compound showed an EC50 in assay [2] of less than 31.6 µM.
`O=C(O)c1cc(OC(F)(F)F)c2nc(N3C[C@@H]4C[C@H]3C[C@H]4OCc3c(-c4ccccc4C(F)(F)F)noc3C3CC3)sc2c1` [Compound I-20, 2-[(1S,4S,5R)-5-({5-cyclopropyl-3-[2-(trifluoromethyl)phenyl]-1,2-oxazol-4-yl}methoxy)-2-azabicyclo[2.2.1]heptan-2-yl]-4-(trifluoromethoxy)-1,3-benzothiazole-6-carboxylic Acid] returned a pEC50 in assay [1] of 8.4. In addition, the Emax in assay [1] (setting [3]) came out at 191%; in assay [2] it was 113%. Also, a half-maximal response in assay [2] (EC50) required 0.000631 µM.
For `O=C(O)[C@H]1CCc2cc(N3C[C@@H]4C[C@H]3C[C@H]4OCc3c(-c4c(Cl)cccc4Cl)noc3C3CC3)ccc2C1` (single isomer, unassigned) [Compound I-138] the same measures were 7.6, 132%, 106% and 0.0158 µM.
For `O=C(O)c1ccc(N2C[C@@H]3C[C@H]2C[C@H]3OCc2c(-c3c(Cl)cccc3Cl)noc2C2CC2)cn1` [Compound I-128, 5-[(1S,4S,5R)-5-{[5-cyclopropyl-3-(2,6-dichlorophenyl)-1,2-oxazol-4-yl]methoxy}-2-azabicyclo[2.2.1]heptan-2-yl]pyridine-2-carboxylic Acid] the same measures were 7.8, 110%, 93% and 0.01 µM.
For the compound `CC(C)C(=O)OCCS(=O)(=O)NC(=O)c1ccc(N2C[C@@H]3C[C@H]2C[C@H]3OCc2c(-c3c(Cl)cccc3Cl)noc2C2CC2)cc1` [Compound I-213, 2-[({4-[(1S,4S,5R)-5-{[5-cyclopropyl-3-(2,6-dichlorophenyl)-1,2-oxazol-4-yl]methoxy}-2-azabicyclo[2.2.1]heptan-2-yl]phenyl}formamido)sulfonyl]ethyl 2-methylpropanoate], the pEC50 in assay [1] stood at 9.4. Further, in assay [1] (setting [3]), the Emax stood at 131%. In assay [2], this compound showed an EC50 of less than 0.0316 µM.
With `O=C(O)c1ccc(N2C(=O)[C@@H]3C[C@H]2C[C@@H]3OCc2c(-c3c(Cl)cccc3Cl)noc2C2CC2)cc1` [Compound I-245, 4-[(1S,4R,5S)-5-{[5-cyclopropyl-3-(2,6-dichlorophenyl)-1,2-oxazol-4-yl]methoxy}-3-oxo-2-azabicyclo[2.2.1]heptan-2-yl]benzoic Acid], the pEC50 in assay [1] is recorded as more than 5.5. In addition, in assay [2], the Emax came to 0% and the EC50 was less than 0.0316 µM.
The compound `O=C(O)c1cc(C2CC2)c2nc(N3C(=O)[C@@H]4C[C@H]3C[C@H]4OCc3c(-c4c(Cl)cccc4Cl)noc3C3CC3)sc2c1` [Compound I-295, 4-cyclopropyl-2-((1S,4R,5R)-5-((5-cyclopropyl-3-(2,6-dichlorophenyl)isoxazol-4-yl)methoxy)-3-oxo-2-azabicyclo[2.2.1]heptan-2-yl)benzo[d]thiazole-6-carboxylic acid] displayed a pEC50 in assay [1] of 8.2. In assay [1] (setting [3]), the Emax worked out at 98%. Further, in assay [2], the Emax stood at 105% and the EC50 was 0.001 µM.
In assay [1], `COc1cccc(-c2noc(C3CC3)c2CO[C@@H]2C[C@@H]3C[C@H]2CN3c2nc3c(F)cc(C(=O)O)cc3s2)c1` [Compound I-289, 2-((1S,4S,5R)-5-((5-cyclopropyl-3-(3-methoxyphenyl)isoxazol-4-yl)methoxy)-2-azabicyclo[2.2.1]heptan-2-yl)-4-fluorobenzo[d]thiazole-6-carboxylic acid] gave a pEC50 of 6.9. Besides, the Emax in assay [1] (setting [3]) turned out to be 70%. This compound had an EC50 in assay [2] of less than 0.0316 µM.
Consider `O=C(NS(=O)(=O)CCC(O)CO)c1ccc(N2C[C@@H]3C[C@H]2C[C@H]3OCc2c(-c3c(Cl)cccc3Cl)noc2C2CC2)cc1` (stereo partly drawn) [Compound I-219, 4-[(1S,4S,5R)-5-{[5-cyclopropyl-3-(2,6-dichlorophenyl)-1,2-oxazol-4-yl]methoxy}-2-azabicyclo[2.2.1]heptan-2-yl]-N-(3,4-dihydroxybutanesulfonyl)benzamide], for which the pEC50 in assay [1] was 8.6. Further, the Emax in assay [1] (setting [3]) was 144%. Besides, in assay [2], the Emax was 104% and the EC50 is 0.0398 µM.
`O=C(O)c1cnc(N2C[C@@H]3C[C@H]2C[C@H]3OCc2c(-c3c(Cl)cccc3Cl)noc2C2CC2)c(F)c1` [Compound I-129, 6-[(1S,4S,5R)-5-{[5-cyclopropyl-3-(2,6-dichlorophenyl)-1,2-oxazol-4-yl]methoxy}-2-azabicyclo[2.2.1]heptan-2-yl]-5-fluoropyridine-3-carboxylic Acid]: the Emax is 152% in assay [1] (setting [3]) and 101% in assay [2]. For the same compound, the response in assay [2] was half-maximal at 0.00398 µM (EC50).
Turning to `CCOc1cc(C(=O)O)cc2sc(N3C[C@@H]4C[C@H]3C[C@H]4OCc3c(-c4c(Cl)cccc4Cl)noc3C3CC3)nc12` [Compound I-18, 2-[(1S,4S,5R)-5-{[5-cyclopropyl-3-(2,6-dichlorophenyl)-1,2-oxazol-4-yl]methoxy}-2-azabicyclo[2.2.1]heptan-2-yl]-4-ethoxy-1,3-benzothiazole-6-carboxylic acid], the pEC50 in assay [1] was found to be 8.8. In addition, the Emax in assay [1] (setting [3]) stood at 135%; in assay [2], 109%. In addition, a half-maximal effect in assay [2] (EC50) was put at 0.0001 µM.
Compound `N#Cc1cc(C(=O)O)ccc1N1C[C@@H]2C[C@H]1C[C@H]2OCc1c(-c2c(Cl)cccc2Cl)noc1C1CC1` [Compound I-102, 3-cyano-4-[(1S,4S,5R)-5-{[5-cyclopropyl-3-(2,6-dichlorophenyl)-1,2-oxazol-4-yl]methoxy}-2-azabicyclo[2.2.1]heptan-2-yl]benzoic Acid] gave a pEC50 in assay [1] of 8.6. The Emax in assay [1] (setting [3]) is 112%. Further, in assay [2], the Emax is 106% and it took 0.000794 µM to reach a half-maximal effect (EC50).
As for `O=C(O)c1ccc(N2C[C@@H]3C[C@H]2C[C@H]3OCc2c(C3CCC4(CC3)CC4)noc2C2CC2)cc1` [Compound I-125, 4-[(1S,4S,5R)-5-[(5-cyclopropyl-3-{spiro[2.5]octan-6-yl}-1,2-oxazol-4-yl)methoxy]-2-azabicyclo[2.2.1]heptan-2-yl]benzoic Acid], in assay [1], the Emax was 92%. Also, in assay [2], the Emax was 106% and the EC50 was 0.251 µM.
In assay [1], `O=C(O)c1cc(C2CCOC2)c2nc(N3C(=O)[C@@H]4C[C@H]3C[C@H]4OCc3c(-c4c(Cl)cccc4Cl)noc3C3CC3)sc2c1` (stereo partly drawn) [Compound I-299, 2-((1S,4R,5R)-5-((5-cyclopropyl-3-(2,6-dichlorophenyl)isoxazol-4-yl)methoxy)-3-oxo-2-azabicyclo[2.2.1]heptan-2-yl)-4-(tetrahydrofuran-3-yl)benzo[d]thiazole-6-carboxylic acid] showed a negative logarithm of the EC50 (pEC50) of 8. In assay [1] (setting [3]), the Emax came to 112%. For the same compound, in assay [2], the Emax was found to be 108% and the midpoint of the response, the EC50, lay at 0.00398 µM.
The compound `O=C(O)c1cc(F)c2nc(N3C[C@@H]4C[C@H]3C[C@H]4OC(=O)c3c(-c4c(Cl)cccc4Cl)noc3C3(F)CC3)sc2c1` [Compound I-10, 2-[(1S,4S,5R)-5-[3-(2,6-dichlorophenyl)-5-(1-fluorocyclopropyl)-1,2-oxazole-4-carbonyloxy]-2-azabicyclo[2.2.1]heptan-2-yl]-4-fluoro-1,3-benzothiazole-6-carboxylic Acid] displayed a pEC50 in assay [1] of 7. In assay [1] (setting [3]), the Emax is 145%. Also, in assay [2], the Emax worked out at 111% and a half-maximal response (EC50) required 0.0251 µM.
For `CCc1cc(C(=O)O)cc2sc(N3C[C@@H]4C[C@H]3C[C@H]4OCc3c(-c4c(Cl)cccc4Cl)noc3C3CC3)nc12` [Compound I-246, 2-[(1S,4S,5R)-5-{[5-cyclopropyl-3-(2,6-dichlorophenyl)-1,2-oxazol-4-yl]methoxy}-2-azabicyclo[2.2.1]heptan-2-yl]-4-ethyl-1,3-benzothiazole-6-carboxylic Acid] the same measures were 8.5, 136%, 113% and 0.000251 µM.
As to `O=C(O)c1ccc(N2C[C@H]3C[C@@H]2C[C@@H]3OCc2c(-c3c(Cl)cccc3Cl)noc2C2CC2)c(F)c1` [Compound I-131, 4-[(1R,4R,5S)-5-{[5-cyclopropyl-3-(2,6-dichlorophenyl)-1,2-oxazol-4-yl]methoxy}-2-azabicyclo[2.2.1]heptan-2-yl]-3-fluorobenzoic Acid], in assay [1], the Emax stood at 108%. Besides, in assay [2], the Emax is 94% and the EC50 is 0.0316 µM.
